Experimental data reported in ChEMBL document CHEMBL1133164, “N-[[(5-methyl-3-phenylisoxazol-4-yl)-phenyl]sulfonyl]propanamide, sodium salt, parecoxib sodium: A potent and selective inhibitor of COX-2 for parenteral administration” (J Med Chem, 2000).

How the values were obtained:
[1] = molecular target: Prostaglandin G/H synthase 1 (Homo sapiens, UniProt P23219); test: Compound was tested for its inhibitory activity against recombinant human Prostaglandin G/H synthase 1
[2] = molecular target: T1, Prostaglandin G/H synthase 2 (Homo sapiens, UniProt P35354)
T1 sequence (P35354 whole entry): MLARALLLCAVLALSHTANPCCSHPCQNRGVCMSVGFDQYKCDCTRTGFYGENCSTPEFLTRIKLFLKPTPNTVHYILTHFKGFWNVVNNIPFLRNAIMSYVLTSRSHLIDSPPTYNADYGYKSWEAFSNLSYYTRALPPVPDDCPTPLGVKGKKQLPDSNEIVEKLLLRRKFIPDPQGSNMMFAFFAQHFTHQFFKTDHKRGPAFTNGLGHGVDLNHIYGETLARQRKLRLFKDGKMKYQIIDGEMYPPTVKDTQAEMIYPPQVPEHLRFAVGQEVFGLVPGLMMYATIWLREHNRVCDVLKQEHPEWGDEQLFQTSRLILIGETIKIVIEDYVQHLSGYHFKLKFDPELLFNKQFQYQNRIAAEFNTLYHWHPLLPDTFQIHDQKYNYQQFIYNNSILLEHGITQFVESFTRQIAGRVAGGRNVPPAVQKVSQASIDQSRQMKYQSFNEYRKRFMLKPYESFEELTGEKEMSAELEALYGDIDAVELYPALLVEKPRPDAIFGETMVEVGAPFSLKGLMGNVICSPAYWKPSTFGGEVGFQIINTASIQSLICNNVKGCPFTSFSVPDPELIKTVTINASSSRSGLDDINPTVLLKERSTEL
Description: Compound was tested for its inhibitory activity against recombinant human Prostaglandin G/H synthase 2

Rattus norvegicus [3] = organism: Rattus norvegicus; test: Compound was tested for the antiinflammatory activity in carrageenan air pouch model of inflammation; format: functional
Rattus norvegicus [4] = test: Compound was tested for the percentage inhibition at 0.3 mg/kg in carrageenan air pouch assay.; format: functional
Rattus norvegicus [5] = organism: Rattus norvegicus; test: Compound was tested for the chronic antiinflammatory activity in rat adjuvant arthritis model; format: functional
[6] = In vivo mean elimination half life in the male rat by intravenous administration of the compound; format: ADME, organism-based
Rattus norvegicus [7] = test: Compound was tested for complete blockade of carrageenan induced hyperalgesia within 1 hr after iv administration; format: functional
[8] = In vivo mean elimination half life in the female dogs by intravenous administration of the compound; format: ADME, organism-based, Canis lupus familiaris; conditions: dog
[9] = In vivo mean elimination half life in the cynomolgus monkeys by intravenous administration of the compound; format: ADME, organism-based, Macaca fascicularis; conditions: cynomolgus monkey
Rattus norvegicus [10] = organism: Rattus norvegicus; test: Compound was tested for the antiinflammatory activity in rat adjuvant arthritis model; format: functional

Prostaglandin G/H synthase 1, sequence (P23219 whole entry): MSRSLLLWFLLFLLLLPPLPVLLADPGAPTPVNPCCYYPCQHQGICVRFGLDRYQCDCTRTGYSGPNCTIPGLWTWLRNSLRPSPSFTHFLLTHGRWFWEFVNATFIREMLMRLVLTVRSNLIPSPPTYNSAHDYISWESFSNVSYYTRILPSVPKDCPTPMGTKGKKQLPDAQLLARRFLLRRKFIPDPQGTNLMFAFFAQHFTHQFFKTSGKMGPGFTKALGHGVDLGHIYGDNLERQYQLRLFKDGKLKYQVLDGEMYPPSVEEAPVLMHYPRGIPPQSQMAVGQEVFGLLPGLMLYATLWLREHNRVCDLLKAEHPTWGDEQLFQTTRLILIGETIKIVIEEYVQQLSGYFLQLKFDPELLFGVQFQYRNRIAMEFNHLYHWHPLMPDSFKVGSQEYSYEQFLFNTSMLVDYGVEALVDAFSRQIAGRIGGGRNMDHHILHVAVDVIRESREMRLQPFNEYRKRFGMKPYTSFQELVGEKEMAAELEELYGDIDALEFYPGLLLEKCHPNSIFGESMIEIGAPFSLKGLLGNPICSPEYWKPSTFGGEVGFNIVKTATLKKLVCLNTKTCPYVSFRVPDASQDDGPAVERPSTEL

Work on `CC(=O)[N-]S(=O)(=O)c1ccc(-c2c(-c3ccccc3)noc2C)cc1.[Na+]` yielded an IC50 [1] of 100 µM, an IC50 [2] of 20 µM and an ED50 (Rattus norvegicus [3]) of 0.5 mg/kg.

Work on `CCC(=O)[N-]S(=O)(=O)c1ccc(-c2c(-c3ccccc3)noc2C)cc1.[Na+]` [PARECOXIB SODIUM] yielded an inhibition in vivo at 0.3 mg/kg (Rattus norvegicus [4]) of 98%, an ED50 (Rattus norvegicus [5]) of 0.08 mg/kg and a half-life [6] of 8.1 min. It also gave an ED50 (Rattus norvegicus [7]) of 5 mg/kg, a half-life [8] of 33.2 min and a half-life [9] of 72.6 min.

With `Cc1onc(-c2ccccc2)c1-c1ccc(S(N)(=O)=O)cc1` [VALDECOXIB] the ED50 (Rattus norvegicus [10]) was 0.08 mg/kg.
